Experimental data reported in patent US6037463A, “Enzymatic RNA molecules that cleave mutant N-RAS” (priority 1996, dated 2000).

Assays:
[1] = system: synthetic oligoribonucleotide substrate of 15 nucleotides, mutant N-ras mRNA (codon 13); experiment: Kinetics with synthetic substrates (multiple turnover), ribozymes against mutant N-ras; assay type: biochemical; conditions: Table IA, Michaelis-Menten conditions; for kcat: 37° C., 10 mM MgCl2
Protocol: (§1) In one investigation, short synthetic oligoribonucleotides of 15 nucleotides chain length served as substrates. Cleavage kinetics of all ribozymes were carried out under Michaelis-Menten conditions. […] Ribozymes RE990 or RE1035 against the wild type mRNA as well as their substrate complexes on the other hand reveal Tm values of approximately 52° C.
(§2) Kinetic constants Km and kcat were determined from Eadie-Hofstee plots carried out with 5'-^32 P-labeled substrate. The RNA substrate was labeled by reaction with T4 polynucleotide kinase and [γ-^32P]-ATP. 5'-end labeled substrate was purified from [γ-^32 P]-ATP with CENTRICON-3 tubes. Ribozyme and substrate were heated separately for 1 min at 75° C. in 50 mM Tris-Cl (pH 7.5). After cooling to 37° C. for 5 min, 100 mM MgCl2 were added to a final concentration of 10 mM, and the solution was incubated for an additional 5 min at 37° C. Multiple turnover reactions were carried out in a volume of 100 μl with concentrations of substrate between 20-500 nM and ribozyme concentrations from 2 to 5 nM in 50 mM Tris-Cl (pH 7.5) and 10 mM MgCl2 at 37° C. Reactions were initiated by addition of ribozyme. The reaction was stopped by mixing the ribozymes with an equal volume of stop solution (8 M urea, 25 mM EDTA). The cleavage reactions were analyzed on 20% denaturing polyacrylamide gels (8 M urea) and scanned on a Molecular Dynamic Phosphorimaging system.

[2] = system: in vitro transcribed wild type N-ras mRNA; experiment: Kinetics with in vitro transcribed RNA (single-turnover), wild type; assay type: biochemical; conditions: for cleavage of wild type N-ras mRNA: ribozymes directed against mutant mRNA
Excerpt: (§3) In a further investigation, RNA containing the mutant or wild type N-ras sequence from transcription initiation site to termination site was synthesized by in vitro transcription. In order to achieve efficient mRNA cleavage, the target sequence of the substrate (NUX-triplet, N=A,G,C,U; X=C,A,U) is not allowed to be double-stranded or part of a stable hairpin. The in vitro transcribed RNA served as substrate for five ribozymes mentioned above. The catalytic efficiency was examined under "single-turnover" conditions to detect the splice products.
(§4) For in vitro transcription, pMS5-NRAS, pMS5A-NRAS and pMS5B-NRAS were linearized by EcoRI digestion, phenol-extracted and ethanol-precipitated. Transcription was carried out in a 100 μl mixture containing 50 ng/μl linearized plasmid DNA, 10 mM DTT, 40 mM Tris-Cl (pH 7.5), 50 mM NaCl, 8 mM MgCl2, 2 mM spermidine, 500 μM rNTP's, 0.8 U/μl RNAse-lnhibitor, 2 μCi/μl [α-^32 P]-ATP and 2.5 U/μl T7 RNA Polymerase. A one-hour incubation at 37° C. was followed by the addition of 25 Units of DNAsel, and the mixture was incubated for an additional 30 min at 37° C. After subsequent phenol extraction, the aqueous phase was transferred into a CENTRICON-100 tube and centrifuged at 3,400 U/min for 30 min. The RNA-solution was checked for homogeneity by UV absorption and 6% analytical PAGE (8 M urea). The solution was stored frozen at -20° C.
(§5) The cleavage efficiency under "single-turnover" conditions was determined in a volume of 10 μl using 20-1200 nM ribozyme, 50 mM Tris-Cl (pH 7.5) and 10 mM MgCl2. The reaction was initiated by addition of RNA substrate to a final concentration of 10 nM substrate over 1 h at 37° C. The reaction was stopped by mixing 8 μl of stop solution to each reaction. The reaction was analyzed on 6% denaturing polyacrylamide gels and scanned on a Molecular Dynamics Phosphor Imager. The single turnover kcat /Km values were determined as described by Heidenreich et al., J. Biol. Chem. 267:1904 (1992).

[3] = system: in vitro transcribed mutant N-ras mRNA (codon 13); experiment: Kinetics with in vitro transcribed RNA (single-turnover), mutant; assay type: biochemical
Excerpt: as §3, §4, §5

[4] = system: synthetic substrate, mutant N-ras mRNA (codon 13); experiment: Melting curves (Tm) of ribozyme-substrate complexes, mutant; assay type: binding; conditions: ribozyme-substrate complex
Protocol: as §1
(§6) UV temperature curves were measured at 260 nm using a Varian Cary-1 UV/VIS-spectrophotometer. The target was prepared by dissolving the ribozyme in a buffer containing 50 mM Tris-Cl (pH 7.5) and 10 mM MgCl2. The sample was transferred in a cuvette with a 10 mm path length. The ribozyme was denatured at 80° C. for 5 min, and subsequently the substrate RNA and substrate DNA were added and the whole mixture was renatured at 1° C./min. Melting curves at 260 nm were performed by heating the solution in the cuvette at 0.75° C./min and acquiring absorbance data every 0.5° C. step until 80° C. was reached. The Tm value and thermodynamic parameters of transition were obtained by fitting data of a two transition state model with the GraFit version 2.0 from Sigma Chemicals Co. software using the method of Marky and Breslauer, Biopolymers 26:1601 (1987).

[5] = system: N-ras transformed NIH3T3 cells (mutation in codon 13, clones 2 and 4); experiment: Colony-forming soft agar assay, retrovirally mediated ribozyme; assay type: cell-based; conditions: beyond the effect of the retroviral vector alone
Protocol: The cells of the constitutively N-ras expressing clones 2 and 4 (mutation in codon 13) were subcultured in soft agar using the colony-forming agar assay of Cowley et al., Cell 77:841 (1994). The colony-forming agar assay is a semisolid method in which cells are suspended in a 0.3% agar upper layer and plated out over a 0.5% agar lower layer in Petri dishes. The lower layer was prepared by heating a 2.5% solution of agar in deionized water. After cooling the agar to 45° C. in a water bath, an agar mix of 0.5% agar was prepared by combining 25 ml of 1×DMEM medium, 10 ml of 2.5% agar, 10 ml of 2×DMEM medium, and 5 ml of fetal calf serum. One milliliter samples of the agar mix were pipetted into 35 mm Petri culture dishes and stored at 4° C. for 30 minutes.
The upper layer was prepared by adding 0.2 ml of agar mix to 1 ml of about 5×10^4 cells/ml suspension, and adding DMEM medium to a total volume of 1.7 ml. One milliliter samples were pipette onto bottom agar layers and incubated for 14-21 days at 37° C. […]
The soft agar cultures were incubated for […] at 37° C. and 5% CO2. The reduction in transformed N-ras NIH3T3 cells was analyzed by counting cell clusters under a microscope. The soft agar preparations were set up in quadruplicate for each construct and the mean values were calculated, as presented in Table VII.

[6] = system: synthetic oligoribonucleotide substrate of 15 nucleotides, wild-type N-ras mRNA (codon 64, 89 or 103); experiment: Kinetics with synthetic substrates (multiple turnover), ribozymes against wild-type N-ras; assay type: biochemical; conditions: for Km / kcat: Table IA, Michaelis-Menten conditions; for kcat: 37° C., 10 mM MgCl2
Protocol: as §1, §2

[7] = system: synthetic substrate, wild type N-ras mRNA; experiment: Melting curves (Tm) of ribozyme-substrate complexes, wild type; assay type: binding; conditions: ribozyme-substrate complex
Protocol: as §1, §6

[8] = Table IIA, single-turnover, transcribed N-ras mRNA
[9] = Table III, modified ribozymes, transcribed N-ras mRNA
[10] = Table IIB, single-turnover, transcribed RNA

Substance | Km [1] [µM] | kcat [1] [s⁻¹] | cleavage of wild type N-ras mRNA [2] | Km [3, 8] [µM] | kcat [3, 8] | Km [3, 9] [µM] | kcat [3, 9] | Tm [4] | Km [6] [µM] | kcat [6] [s⁻¹] | Km [2, 8] [µM] | kcat [2, 8] | Tm [7] | other results
5'-CCAACACCUGAUGAGCGUUAGCGAAACCUGCU-3' (chemistry not given here) | 0.082 | 0.015 | do not cleave | 0.071 | 266 10^6 × s^-1 | 0.071 | 266 10^6 × s^-1 | approximately 48 °C | – | – | – | – | – | reversion of the malignant phenotype [5]: about 18%
RE917: ribozyme against codon 64 of the wild-type N-ras mRNA, SEQ ID NO:14 (GGCACUGCUGAUGAGCGUUAGCUAAACUCUUC; chemistry not given here) | – | – | – | – | – | – | – | – | 0.078 | 0.013 | 0.063 | 59 10^6 × s^-1 | – | Km [2, 10]: 0.063 µM; kreact [2, 10]: 59 10^6 s^-1; Km [2, 9]: 0.063 µM; kcat [2, 9]: 59 10^6 × s^-1
RE990: ribozyme against codon 89 of the wild-type N-ras mRNA, SEQ ID NO:15 (CGCAAAUCUGAUGAGCGUUAGCGAAACUUGCU; chemistry not given here) | – | – | – | – | – | – | – | – | 0.404 | 0.004 | 0.234 | 72 10^6 × s^-1 | approximately 52 °C | kcat /Km [6]: much less catalytic efficiency
RE1035: ribozyme against codon 103 of the wild-type N-ras mRNA, SEQ ID NO:16 (AGUCUUUCUGAUGAGCGUUAGCGAAACUCGCU; chemistry not given here) | – | – | – | – | – | – | – | – | 0.277 | 0.013 | 0.425 | 44 10^6 × s^-1 | approximately 52 °C | –
5'-UCCCAACCUGAUGAGCGUUAGCGAAACACCUG-3' (chemistry not given here) | 0.065 | 0.012 | do not cleave | 0.113 | 137 10^6 × s^-1 | 0.113 | 137 10^6 × s^-1 | approximately 48 °C | – | – | – | – | – | Km [3, 10]: 0.113 µM; kreact [3, 10]: 137 10^6 s^-1
